# Assay results reported in ChEMBL document CHEMBL1130231, “Betidamino acid scan of the GnRH antagonist acyline” (J Med Chem, 1997).
# The source made the active and inactive calls. No cut-off for these calls is given here.
# Legend:
# Assay type in all cases: functional, organism-based
# [1] = tested on: Rattus norvegicus; assay: Ratio of ovulated rats to total number of rats determined in a anti-ovulatory assay by administering 10 microg of compound; 8/8
# [2] = tested on: Rattus norvegicus; assay: Ratio of ovulated rats to total number of rats determined in a anti-ovulatory assay by administering 25 microg of compound; 4/8
# [3] = tested on: Rattus norvegicus; assay: Ratio of ovulated rats to total number of rats determined in a anti-ovulatory assay by administering 1 microg of compound; 5/8
# [4] = tested on: Rattus norvegicus; assay: Ratio of ovulated rats to total number of rats determined in a anti-ovulatory assay by administering 2.5 microg of compound; 0/8
# [5] = tested on: Rattus norvegicus; assay: Ratio of ovulated rats to total number of rats determined in a anti-ovulatory assay by administering 250 microg of compound; 6/8
# [6] = tested on: Rattus norvegicus; assay: Ratio of ovulated rats to total number of rats determined in a anti-ovulatory assay by administering 25 microg of compound; 0/8
# [7] = tested on: Rattus norvegicus; assay: Ratio of ovulated rats to total number of rats determined in a anti-ovulatory assay by administering 10 microg of compound; 7/8
# [8] = tested on: Rattus norvegicus; assay: Ratio of ovulated rats to total number of rats determined in a anti-ovulatory assay by administering 5 microg of compound; 2/8
# [9] = tested on: Rattus norvegicus; assay: Ratio of ovulated rats to total number of rats determined in a anti-ovulatory assay by administering 1 microg of compound; 3/8
# [10] = tested on: Rattus norvegicus; assay: Ratio of ovulated rats to total number of rats determined in a anti-ovulatory assay by administering 5 microg of compound; 0/4
# [11] = tested on: Rattus norvegicus; assay: Ratio of ovulated rats to total number of rats determined in a anti-ovulatory assay by administering 2.5 microg of compound; 1/7
# [12] = tested on: Rattus norvegicus; assay: Ratio of ovulated rats to total number of rats determined in a anti-ovulatory assay by administering 1.0 microg of compound; 3/4
# [13] = tested on: Rattus norvegicus; assay: Ratio of ovulated rats to total number of rats determined in a anti-ovulatory assay by administering 5 microg of compound; 1/8
# [14] = tested on: Rattus norvegicus; assay: Ratio of ovulated rats to total number of rats determined in a anti-ovulatory assay by administering 2.5 microg of compound; 2/8
# [15] = tested on: Rattus norvegicus; assay: Ratio of ovulated rats to total number of rats determined in a anti-ovulatory assay by administering 5 microg of compound; 5/8
# [16] = tested on: Rattus norvegicus; assay: Ratio of ovulated rats to total number of rats determined in a anti-ovulatory assay by administering 10 microg of compound; 0/8
# [17] = tested on: Rattus norvegicus; assay: Ratio of ovulated rats to total number of rats determined in a anti-ovulatory assay by administering 250 microg of compound; 2/2
# [18] = tested on: Rattus norvegicus; assay: Ratio of ovulated rats to total number of rats determined in a anti-ovulatory assay by administering 10 microg of compound; 1/8
# [19] = tested on: Rattus norvegicus; assay: Ratio of ovulated rats to total number of rats determined in a anti-ovulatory assay by administering 2.5 microg of compound; 8/8
# [20] = tested on: Rattus norvegicus; assay: Ratio of ovulated rats to total number of rats determined in a anti-ovulatory assay by administering 250 microg of compound; 3/3
# [21] = tested on: Rattus norvegicus; assay: Ratio of ovulated rats to total number of rats determined in a anti-ovulatory assay by administering 5 microg of compound; 0/8
# [22] = tested on: Rattus norvegicus; assay: Ratio of ovulated rats to total number of rats determined in a anti-ovulatory assay by administering 2.5 microg of compound; 5/5
# [23] = tested on: Rattus norvegicus; assay: Ratio of ovulated rats to total number of rats determined in a anti-ovulatory assay by administering 2.5 microg of compound; 0/4
# [24] = tested on: Rattus norvegicus; assay: Ratio of ovulated rats to total number of rats determined in a anti-ovulatory assay by administering 1 microg of compound; 3/3
# [25] = tested on: Rattus norvegicus; assay: Ratio of ovulated rats to total number of rats determined in a anti-ovulatory assay by administering 1 ug of compound; 2/8
# [26] = tested on: Rattus norvegicus; assay: Ratio of ovulated rats to total number of rats determined in a anti-ovulatory assay by administering 0.5 microg of compound; 9/11
# [27] = tested on: Rattus norvegicus; assay: Ratio of ovulated rats to total number of rats determined in a anti-ovulatory assay by administering 1 microg of compound; 6/17
compound,measurement,setting,value
CC(=O)Nc1ccc(C[C@H](NC(=O)[C@H](CO)NC(=O)[C@@H](Cc2cccnc2)NC(=O)[C@@H](Cc2ccc(Cl)cc2)NC(=O)[C@@H](Cc2ccc3ccccc3c2)NC(C)=O)C(=O)N[C@H](C(=O)N[C@@H](CC(C)C)C(=O)N[C@@H](CCCCNC(C)C)C(=O)N2CCC[C@@H]2C(=O)N[C@H](C)C(N)=O)N(C)C(=O)c2ccc(NC(C)=O)cc2)cc1 (mixture of isomers),ov. rat/total,[1],inactive
same,ov. rat/total,[2],Partially active
CC(=O)Nc1ccc(C[C@@H](NC(=O)[C@H](NC(=O)c2ccc(O)cc2)NC(=O)[C@H](CO)NC(=O)[C@@H](Cc2cccnc2)NC(=O)[C@@H](Cc2ccc(Cl)cc2)NC(=O)[C@@H](Cc2ccc3ccccc3c2)NC(C)=O)C(=O)N[C@@H](CC(C)C)C(=O)N[C@@H](CCCCNC(C)C)C(=O)N2CCC[C@@H]2C(=O)N[C@H](C)C(N)=O)cc1,ov. rat/total,[3],Partially active
same,ov. rat/total,[4],Active
CC(=O)Nc1ccc(C[C@H](NC(=O)[C@H](CO)NC(=O)[C@@H](Cc2cccnc2)NC(=O)[C@@H](NC(=O)[C@@H](Cc2ccc3ccccc3c2)NC(C)=O)N(C)C(=O)c2ccc(Cl)cc2)C(=O)N[C@H](Cc2ccc(NC(C)=O)cc2)C(=O)N[C@@H](CC(C)C)C(=O)N[C@@H](CCCCNC(C)C)C(=O)N2CCC[C@@H]2C(=O)N[C@H](C)C(N)=O)cc1 (mixture of isomers),ov. rat/total,[5],inactive
CC(=O)Nc1ccc(C[C@H](NC(=O)[C@H](CO)NC(=O)[C@@H](Cc2cccnc2)NC(=O)[C@@H](Cc2ccc(Cl)cc2)NC(=O)[C@H](NC(C)=O)N(C)C(=O)c2ccc3ccccc3c2)C(=O)N[C@H](Cc2ccc(NC(C)=O)cc2)C(=O)N[C@@H](CC(C)C)C(=O)N[C@@H](CCCCNC(C)C)C(=O)N2CCC[C@@H]2C(=O)N[C@H](C)C(N)=O)cc1,ov. rat/total,[6],Active
same,ov. rat/total,[7],inactive
CC(=O)Nc1ccc(C[C@@H](NC(=O)[C@@H](NC(=O)c2ccc(NC(C)=O)cc2)NC(=O)[C@H](CO)NC(=O)[C@@H](Cc2cccnc2)NC(=O)[C@@H](Cc2ccc(Cl)cc2)NC(=O)[C@@H](Cc2ccc3ccccc3c2)NC(C)=O)C(=O)N[C@@H](CC(C)C)C(=O)N[C@@H](CCCCNC(C)C)C(=O)N2CCC[C@@H]2C(=O)N[C@H](C)C(N)=O)cc1,ov. rat/total,[8],Partially active
"CC(=O)Nc1ccc(C[C@H](NC(=O)[C@@H](NC(=O)CO)NC(=O)[C@@H](Cc2cccnc2)NC(=O)[C@@H](Cc2ccc(Cl)cc2)NC(=O)[C@@H](Cc2ccc3ccccc3c2)NC(C)=O)C(=O)N[C@H](Cc2ccc(NC(C)=O)cc2)C(=O)N[C@@H](CC(C)C)C(=O)N[C@@H](CCCCNC(C)C)C(=O)N2CCC[C@@H]2C(=O)N[C@H](C)C(N)=O)cc1 (single isomer, unassigned)",ov. rat/total,[8],Partially active
CC(=O)Nc1ccc(C[C@H](NC(=O)[C@H](CO)NC(=O)[C@@H](Cc2cccnc2)NC(=O)[C@@H](Cc2ccc(Cl)cc2)NC(=O)[C@@H](Cc2ccc3ccccc3c2)NC(C)=O)C(=O)N[C@H](Cc2ccc(NC(C)=O)cc2)C(=O)N[C@@H](CC(C)C)C(=O)N[C@@H](CCCCNC(C)C)C(=O)N2CCC[C@@H]2C(=O)N[C@H](N)C(N)=O)cc1,ov. rat/total,[9],Partially active
same,ov. rat/total,[4],Active
CC(=O)Nc1ccc(C[C@H](NC(=O)[C@H](CO)NC(=O)[C@@H](Cc2cccnc2)NC(=O)[C@@H](Cc2ccc(Cl)cc2)NC(=O)[C@@H](Cc2ccc3ccccc3c2)NC(C)=O)C(=O)N[C@H](Cc2ccc(NC(C)=O)cc2)C(=O)N[C@@H](CC(C)C)C(=O)NC(NC(=O)CN=C(N)N)C(=O)N2CCC[C@@H]2C(=O)N[C@H](C)C(N)=O)cc1 (some centres not stated),ov. rat/total,[10],Active
same,ov. rat/total,[11],Active
same,ov. rat/total,[12],inactive
CC(=O)Nc1ccc(C[C@H](NC(=O)[C@H](CO)NC(=O)[C@@H](Cc2cccnc2)NC(=O)[C@@H](Cc2ccc(Cl)cc2)NC(=O)[C@@H](Cc2ccc3ccccc3c2)NC(C)=O)C(=O)N[C@H](Cc2ccc(NC(C)=O)cc2)C(=O)N[C@H](C(=O)N[C@@H](CCCCNC(C)C)C(=O)N2CCC[C@@H]2C(=O)N[C@H](C)C(N)=O)N(C)C(C)=O)cc1,ov. rat/total,[13],Active
same,ov. rat/total,[14],Partially active
CC(=O)Nc1ccc(C[C@H](NC(=O)[C@H](CO)NC(=O)[C@@H](Cc2cccnc2)NC(=O)[C@@H](Cc2ccc(Cl)cc2)NC(=O)[C@@H](Cc2ccc3ccccc3c2)NC(C)=O)C(=O)N[C@H](Cc2ccc(NC(C)=O)cc2)C(=O)N[C@@H](NC(C)=O)C(=O)N[C@@H](CCCCNC(C)C)C(=O)N2CCC[C@@H]2C(=O)N[C@H](C)C(N)=O)cc1,ov. rat/total,[15],Partially active
same,ov. rat/total,[16],Active
CC(=O)Nc1ccc(C[C@H](NC(=O)[C@H](CO)NC(=O)[C@@H](Cc2cccnc2)NC(=O)[C@@H](NC(=O)c2cnccn2)NC(=O)[C@@H](Cc2ccc3ccccc3c2)NC(C)=O)C(=O)N[C@H](Cc2ccc(NC(C)=O)cc2)C(=O)N[C@@H](CC(C)C)C(=O)N[C@@H](CCCCNC(C)C)C(=O)N2CCC[C@@H]2C(=O)N[C@H](C)C(N)=O)cc1,ov. rat/total,[17],inactive
"CC(=O)Nc1ccc(C[C@H](NC(=O)[C@H](NC(=O)[C@@H](Cc2cccnc2)NC(=O)[C@@H](Cc2ccc(Cl)cc2)NC(=O)[C@@H](Cc2ccc3ccccc3c2)NC(C)=O)N(C)C=O)C(=O)N[C@H](Cc2ccc(NC(C)=O)cc2)C(=O)N[C@@H](CC(C)C)C(=O)N[C@@H](CCCCNC(C)C)C(=O)N2CCC[C@@H]2C(=O)N[C@H](C)C(N)=O)cc1 (single isomer, unassigned)",ov. rat/total,[18],Active
same,ov. rat/total,[19],inactive
CC(=O)Nc1ccc(C[C@@H](NC(=O)[C@H](NC(=O)[C@H](CO)NC(=O)[C@@H](Cc2cccnc2)NC(=O)[C@@H](Cc2ccc(Cl)cc2)NC(=O)[C@@H](Cc2ccc3ccccc3c2)NC(C)=O)N(C)C(=O)c2ccc(NC(C)=O)cc2)C(=O)N[C@@H](CC(C)C)C(=O)N[C@@H](CCCCNC(C)C)C(=O)N2CCC[C@@H]2C(=O)N[C@H](C)C(N)=O)cc1,ov. rat/total,[3],Partially active
same,ov. rat/total,[4],Active
"CC(=O)Nc1ccc(C[C@H](NC(=O)[C@H](CO)NC(=O)[C@@H](Cc2cccnc2)NC(=O)[C@H](NC(=O)c2cnccn2)NC(=O)[C@@H](Cc2ccc3ccccc3c2)NC(C)=O)C(=O)N[C@H](Cc2ccc(NC(C)=O)cc2)C(=O)N[C@@H](CC(C)C)C(=O)N[C@@H](CCCCNC(C)C)C(=O)N2CCC[C@@H]2C(=O)N[C@H](C)C(N)=O)cc1 (single isomer, unassigned)",ov. rat/total,[20],inactive
CC(=O)Nc1ccc(C[C@H](NC(=O)[C@H](CO)NC(=O)[C@@H](Cc2cccnc2)NC(=O)[C@@H](Cc2ccc(Cl)cc2)NC(=O)[C@H](NC(C)=O)NC(=O)c2ccc3ccccc3c2)C(=O)N[C@H](Cc2ccc(NC(C)=O)cc2)C(=O)N[C@@H](CC(C)C)C(=O)N[C@@H](CCCCNC(C)C)C(=O)N2CCC[C@@H]2C(=O)N[C@H](C)C(N)=O)cc1,ov. rat/total,[21],Active
same,ov. rat/total,[22],inactive
"CC(=O)Nc1ccc(C[C@H](NC(=O)[C@H](CO)NC(=O)[C@@H](Cc2cccnc2)NC(=O)[C@@H](Cc2ccc(Cl)cc2)NC(=O)[C@@H](Cc2ccc3ccccc3c2)NC(C)=O)C(=O)N[C@H](Cc2ccc(NC(C)=O)cc2)C(=O)N[C@@H](CC(C)C)C(=O)N[C@@H](CCCCNC(C)C)C(=O)N2CCC[C@@H]2C(=O)N[C@@H](NC=O)C(N)=O)cc1 (single isomer, unassigned)",ov. rat/total,[23],Active
same,ov. rat/total,[24],inactive
"CC(=O)Nc1ccc(C[C@H](NC(=O)[C@H](CO)NC(=O)[C@@H](Cc2cccnc2)NC(=O)[C@@H](Cc2ccc(Cl)cc2)NC(=O)[C@@H](NC(C)=O)N(C)C(=O)c2ccc3ccccc3c2)C(=O)N[C@H](Cc2ccc(NC(C)=O)cc2)C(=O)N[C@@H](CC(C)C)C(=O)N[C@@H](CCCCNC(C)C)C(=O)N2CCC[C@@H]2C(=O)N[C@H](C)C(N)=O)cc1 (single isomer, unassigned)",ov. rat/total,[25],Partially active
same,ov. rat/total,[4],Active
"CC(=O)Nc1ccc(C[C@H](NC(=O)[C@H](CO)NC(=O)[C@@H](Cc2cccnc2)NC(=O)[C@@H](Cc2ccc(Cl)cc2)NC(=O)[C@@H](Cc2ccc3ccccc3c2)NC(C)=O)C(=O)N[C@H](Cc2ccc(NC(C)=O)cc2)C(=O)N[C@@H](CC(C)C)C(=O)N[C@@H](CCCCNC(C)C)C(=O)N2CCC[C@@H]2C(=O)N[C@H](NC=O)C(N)=O)cc1 (single isomer, unassigned)",ov. rat/total,[26],inactive
same,ov. rat/total,[27],Partially active
